ChEMBL document CHEMBL1201862, “PubChem BioAssay data set” (2004)
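1) Cells in 96-well plates. 2) Compound, 48 h, 5 concentrations. 3) Linear interpolation between surrounding doses. 4) Unreached endpoint = highest concentration. GI50 marks 50% less growth.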 The source made the active and inactive calls. No stated cut-off is given here; in the data, active = GI50 up to about 1.1 µM and inactive = higher.

Key:
Assay in all cases: NCI anticancer screen, dose series, 48 h
EKVX = tested on: EKVX
RXF 393 = tested on: RXF 393
Hs-578T = tested on: Hs-578T
SR = tested on: SR
MDA-MB-435 = tested on: MDA-MB-435
BT-549 = tested on: BT-549
HCT-15 = tested on: HCT-15
HOP-92 = tested on: HOP-92
NCI-H522 = tested on: NCI-H522
NCI-H23 = tested on: NCI-H23
SF-268 = tested on: SF-268
UO-31 = tested on: UO-31
RPMI-8226 = tested on: RPMI-8226
MDA-MB-231 = tested on: MDA-MB-231
KM12 = tested on: KM12
LOX IMVI = tested on: LOX IMVI
A549 = tested on: A549
NCI/ADR-RES = tested on: NCI/ADR-RES
OVCAR-8 = tested on: OVCAR-8
SK-OV-3 = tested on: SK-OV-3

| Compound | GI50 (EKVX) | GI50 (RXF 393) | GI50 (Hs-578T) | GI50 (SR) | GI50 (MDA-MB-435) | GI50 (BT-549) | GI50 (HCT-15) [µM] | GI50 (HOP-92) | GI50 (NCI-H522) | GI50 (NCI-H23) | GI50 (SF-268) | GI50 (UO-31) | GI50 (RPMI-8226) | GI50 (MDA-MB-231) | GI50 (KM12) | GI50 (LOX IMVI) | GI50 (A549) | GI50 (NCI/ADR-RES) | GI50 (OVCAR-8) | GI50 (SK-OV-3) |
| --- | --- | --- | --- | --- | --- | --- | --- | --- | --- | --- | --- | --- | --- | --- | --- | --- | --- | --- | --- | --- |
| Cc1nc(-n2nc(-c3ccccc3)cc2-c2ccccc2)sc1C(=O)/C=C/c1ccc([N+](=O)[O-])cc1 | > 43 µM (inactive) | 16.7 µM (inactive) | 27.7 µM (inactive) | 2.86 µM (inactive) | 16 µM (inactive) | 13.2 µM (inactive) | 14 | > 56.5 µM (inactive) | 16.5 µM (inactive) | 18.4 µM (inactive) | 16.7 µM (inactive) | 14 µM (inactive) | 10.5 µM (inactive) | 33.1 µM (inactive) | 9.29 µM (inactive) | 15.7 µM (inactive) | > 59.7 µM (inactive) | 17.2 µM (inactive) | 17.7 µM (inactive) | > 65.8 µM (inactive) |
| O=C1CSC(c2ccccc2O)N1c1ccc(-c2ccc(-n3c(-c4ccccc4)nc4ccccc4c3=O)cc2)cc1 (stereo not given) | 37.4 µM (inactive) | 35.1 µM (inactive) | 40.1 µM (inactive) | 54.3 µM (inactive) | 33.5 µM (inactive) | 13.7 µM (inactive) | 33.7 | 27.6 µM (inactive) | 19.2 µM (inactive) | 43.9 µM (inactive) | 45.3 µM (inactive) | 20.7 µM (inactive) | 33.6 µM (inactive) | 36.9 µM (inactive) | 13.9 µM (inactive) | 25.7 µM (inactive) | 21.3 µM (inactive) | 30.1 µM (inactive) | 24.3 µM (inactive) | 64.1 µM (inactive) |
| O=P1(N(CCCl)CCCl)Oc2ccc(Cl)cc2Sc2c(ccc(Cl)c2Cl)O1 (stereo not given) | 8.57 µM (inactive) | 3.95 µM (inactive) | 2.13 µM (inactive) | 2.99 µM (inactive) | 7.1 µM (inactive) | 29.1 µM (inactive) | 5.18 | 4.42 µM (inactive) | 6.4 µM (inactive) | 4.27 µM (inactive) | 92.9 µM (inactive) | 4.71 µM (inactive) | 5.02 µM (inactive) | 12.3 µM (inactive) | 4.99 µM (inactive) | 14.6 µM (inactive) | 3.78 µM (inactive) | 6.04 µM (inactive) | 8.71 µM (inactive) | 21.9 µM (inactive) |
| CON(C(=O)OC(C)(C)C)c1ccccc1 | > 100 µM (inactive) | > 100 µM (inactive) | > 100 µM (inactive) | > 100 µM (inactive) | > 100 µM (inactive) | 43.6 µM (inactive) | > 100 | > 100 µM (inactive) | > 100 µM (inactive) | > 100 µM (inactive) | > 100 µM (inactive) | > 100 µM (inactive) | > 100 µM (inactive) | > 100 µM (inactive) | > 100 µM (inactive) | > 100 µM (inactive) | > 100 µM (inactive) | > 100 µM (inactive) | > 100 µM (inactive) | > 100 µM (inactive) |
| Cc1ccc(NC(=O)c2cc(S(=O)(=O)Nc3nc4cccnc4[nH]3)c(SSc3cc(Cl)c(C(=O)Nc4ccc(C)cc4)cc3S(=O)(=O)Nc3nc4cccnc4[nH]3)cc2Cl)cc1 | > 100 µM (inactive) | > 100 µM (inactive) | > 100 µM (inactive) | > 100 µM (inactive) | > 100 µM (inactive) | > 100 µM (inactive) | > 100 | > 100 µM (inactive) | > 100 µM (inactive) | > 100 µM (inactive) | > 100 µM (inactive) | > 100 µM (inactive) | > 100 µM (inactive) | > 100 µM (inactive) | > 100 µM (inactive) | > 100 µM (inactive) | > 100 µM (inactive) | > 100 µM (inactive) | > 100 µM (inactive) | > 100 µM (inactive) |
| CC(C)SC(=S)Sc1c(Cl)c(Cl)nc(Cl)c1Cl | 8.22 µM (inactive) | 4.57 µM (inactive) | 18.6 µM (inactive) | 2.83 µM (inactive) | 7.38 µM (inactive) | 15.3 µM (inactive) | 2.97 | 7.69 µM (inactive) | 4.9 µM (inactive) | 12.3 µM (inactive) | 16.9 µM (inactive) | 8 µM (inactive) | 1.75 µM (inactive) | 12.7 µM (inactive) | 8.24 µM (inactive) | 2.39 µM (inactive) | 16.9 µM (inactive) | 20.3 µM (inactive) | 3.46 µM (inactive) | 17.8 µM (inactive) |
| O=P(NC12CC3CC(CC(C3)C1)C2)(N1CC1)N1CC1 | > 100 µM (inactive) | 15.4 µM (inactive) | 89.3 µM (inactive) | 2.05 µM (inactive) | > 100 µM (inactive) | > 100 µM (inactive) | > 68.5 | 18.5 µM (inactive) | 25.7 µM (inactive) | 6.05 µM (inactive) | 12.3 µM (inactive) | 30.5 µM (inactive) | > 66.1 µM (inactive) | > 100 µM (inactive) | > 100 µM (inactive) | 11.1 µM (inactive) | 26.5 µM (inactive) | 53 µM (inactive) | 43 µM (inactive) | > 55.5 µM (inactive) |
